Values quoted from earlier work in US6903092B2, “Naphthamide neurokinin antagonists for use as medicaments” (priority 2000, dated 2005).
Where two headings read alike, the source gives them in different places. Square brackets hold non-standard residues; d marks the D form. Peptide text beside a SMILES is read from it. * marks the point of attachment. Cyclohexanecarbonyl = O=C(C1CCCCC1)*

Experiments:
[1] = not given; remark: listed apart in the source
[2] = Vassout et al, Neuropeptides 26/S1: 38, 1994; only at 30 mg/kg bid
[3] = not given; remark: listed apart in the source
[4] = tested on: Marmoset; conditions: Walsh et al., Psychopharmacology 121: 186-191, 1995
[5] = Vassout et al, Neuropeptides 26/S1: 38, 1994
[6] = Teixeira et al., Eur J Pharmacol 311(1): 7-14, 1996
[7] = Stratton et al., Eur. J. Pharmacol. 250: R11-12, 1993
[8] = Walsh et al., Psychopharmacology 121: 186-191, 1995

Row | SMILES | Outcome, Elevated plus-maze [1, 6] | Outcome, Light-dark box [3, 7] | Outcome, Light-dark box [3, 8] | Outcome, Marmoset human intruder [4] | other results
1 | Cc1cc(C)cc(C(=O)N2CC[C@H](NCc3ccnc4ccccc34)C[C@H]2Cc2ccccc2)c1 [CGP 49823] | – | – | – | – | Outcome, Social interaction (File, Pharm Bio B 58(3): 747-752, 1997): anxiolytic; Outcome, Social interaction test [5]: anxiolytic; Outcome, Elevated plus-maze [1, 5]: inactive; Outcome, Forced swim test (depression model) [2]: antidepressant
2 | CN(Cc1ccccc1)C(=O)[C@H](Cc1ccc2ccccc2c1)NC(=O)[C@@H]1C[C@@H](O)CN1C(=O)c1cn(C)c2ccccc12 [FK888] | anxiolytic | – | – | – | –
3 | C[C@H](NC(=O)CNC(=O)C1CCCCC1)C(=O)N[C@H](Cc1c[nH]c2ccccc12)C(=O)N[C@@H](Cc1ccccc1)C(=O)N(C)C [GR100679] (Cyclohexanecarbonyl-GA[dW]F-NMe2) | – | anxiolytic | – | – | –
4 | COC1(C[S@@+]([O-])c2ccccc2)CCN(CCc2c[nH]c3ccc(F)cc23)CC1 [GR159897] | – | – | anxiolytic | anxiolytic | –
5 | CC(=O)NC1(c2ccccc2)CCN(CC[C@H](CN(C)C(=O)c2ccccc2)c2ccc(Cl)c(Cl)c2)CC1 [SR48968] | anxiolytic | anxiolytic | anxiolytic | anxiolytic | –
